Results taken from patent publication US8134015B2, “Compound inhibiting in vivo phosphorous transport and medicine containing the same” (Kyowa Hakko Kirin Co., Ltd., priority 2003, dated 2012).

Biological target: T1, rat NaPi-2b (Rattus norvegicus, UniProt Q9JJ09)
T1 construct: expressed in transfected cells; host or cells: Xenopus oocytes injected with cRNA
T1 sequence (Q9JJ09 1-695): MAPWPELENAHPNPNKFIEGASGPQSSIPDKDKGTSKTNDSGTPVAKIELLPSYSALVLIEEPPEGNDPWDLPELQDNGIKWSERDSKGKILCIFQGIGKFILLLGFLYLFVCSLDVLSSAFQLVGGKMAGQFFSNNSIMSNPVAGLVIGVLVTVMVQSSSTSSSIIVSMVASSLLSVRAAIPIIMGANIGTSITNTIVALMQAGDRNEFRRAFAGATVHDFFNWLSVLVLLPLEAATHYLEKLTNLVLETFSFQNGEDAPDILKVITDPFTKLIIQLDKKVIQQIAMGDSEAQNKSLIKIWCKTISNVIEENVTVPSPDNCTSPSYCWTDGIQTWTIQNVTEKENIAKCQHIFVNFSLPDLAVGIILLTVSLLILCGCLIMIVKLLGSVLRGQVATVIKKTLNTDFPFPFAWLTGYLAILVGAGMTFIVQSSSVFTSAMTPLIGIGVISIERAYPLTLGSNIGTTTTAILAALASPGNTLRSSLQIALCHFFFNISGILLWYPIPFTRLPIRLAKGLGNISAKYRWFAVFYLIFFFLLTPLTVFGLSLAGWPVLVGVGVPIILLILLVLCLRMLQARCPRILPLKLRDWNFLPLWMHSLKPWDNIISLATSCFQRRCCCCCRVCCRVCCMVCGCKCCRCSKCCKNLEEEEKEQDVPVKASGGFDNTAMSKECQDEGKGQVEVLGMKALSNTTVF
Assay: Sodium-dependent phosphate uptake of Xenopus oocytes which expressed NaPi-2b (32P)
Assay type: cell-based
Conditions: Xenopus oocytes expressing rat NaPi-2b, 32P radioactive phosphorus; read-out: IC50 (phosphate uptake inhibitory activity)
Outline: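 Oocytes injected with rat NaPi-2b cRNA, cultured 2 d, then 32P uptake measured with compound. Values: % inhibition at 300 and 100 μM, both from one inhibition curve.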

Going from CCN(CC)CCN(C)Cc1cccc(C(=O)Nc2sc3c(c2C(=O)N/N=C/c2ccc(F)cc2)CCCC3)c1 [Compound 611, 3-{[(2-Diethylamino-ethyl)-methyl-amino]-methyl}-N-[3-(4-fluoro-benzylidene-hydrazinocarbonyl)-4,5,6,7-tetrahydro-benzo-[b]thiophen-2-yl]-benzamide] to CCN(CC)CCN(C)Cc1cccc(C(=O)Nc2sc3c(c2C(=O)N/N=C/c2ccc(OC)cc2)CCCC3)c1 [Compound 614, 3-{[(2-Diethylamino-ethyl)-methyl-amino]-methyl}-N-[3-(4-methoxy-benzylidene-hydrazinocarbonyl)-4,5,6,7-tetrahydro-benzo-[b]thiophen-2-yl]-benzamide], the IC50 rises from 2.16 µM to 3.29 µM (1.5-fold).

First: CCN(CC)CCN(C)Cc1cccc(C(=O)Nc2sc3c(c2C(=O)N/N=C/c2cccc(F)c2)CCCC3)c1 [Compound 612, 3-{[(2-Diethylamino-ethyl)-methyl-amino]-methyl}-N-[3-(3-fluoro-benzylidene-hydrazinocarbonyl)-4,5,6,7-tetrahydro-benzo-[b]thiophen-2-yl]-benzamide]
Second: CCN(CC)CCN(C)Cc1cccc(C(=O)Nc2sc3c(c2C(=O)N/N=C/c2ccc(Cl)c(C(F)(F)F)c2)CCCC3)c1 [Compound 613, N-[3-(4-Chloro-3-trifluoromethyl-benzylidene-hydrazinocarbonyl)-4,5,6,7-tetrahydro-benzo[b]thiophen-2-yl]-3-{[(2-diethylamino-ethyl)-methyl-amino]-methyl}-benzamide]
The IC50 of the first is 1.7-fold higher: 2.34 µM for the first, 1.41 µM for the second. The second is the more potent here.

Going from Cc1ccc(/C=N/NC(=O)c2c(NC(=O)c3cccc(CN4CCC(N5CCCCC5)CC4)c3)sc3c2CCCC3)cc1C [Compound 615, 3-[1,4′]Bipiperidinyl-1′-ylmethyl-N-[3-(3,4-dimethyl-benzylidene-hydrazinocarbonyl)-4,5,6,7-tetrahydro-benzo[b]thiophen-2-yl]-benzamide] to Cc1ccc(/C=N/NC(=O)c2c(NC(=O)c3cccc(CN4CCC(N5CCCCC5)CC4)c3)sc3c2CCCC3)cc1 [Compound 616, 3-[1,4′]Bipiperidinyl-1′-ylmethyl-N-[3-(4-methyl-benzylidene-hydrazinocarbonyl)-4,5,6,7-tetrahydro-benzo[b]thiophen-2-yl]-benzamide], the IC50 rises from 2.08 µM to 13.9 µM (6.7-fold).

O=C(Nc1sc2c(c1C(=O)N/N=C/c1ccc(F)cc1)CCCC2)c1cccc(CN2CCC(N3CCCCC3)CC2)c1 [Compound 617, 3-[1,4′]Bipiperidinyl-1′-ylmethyl-N-[3-(4-fluoro-benzylidene-hydrazinocarbonyl)-4,5,6,7-tetrahydro-benzo[b]thiophen-2-yl]-benzamide] and COc1ccc(/C=N/NC(=O)c2c(NC(=O)c3cccc(CN4CCC(N5CCCCC5)CC4)c3)sc3c2CCCC3)cc1 [Compound 620, 3-[1,4′]Bipiperidinyl-1′-ylmethyl-N-[3-(4-methoxy-benzylidene-hydrazinocarbonyl)-4,5,6,7-tetrahydro-benzo[b]thiophen-2-yl]-benzamide] are within 1.5-fold of each other in IC50: 3.68 µM for the first, 3.58 µM for the second.

Compared with O=C(Nc1sc2c(c1C(=O)N/N=C/c1cccc(F)c1)CCCC2)c1cccc(CN2CCC(N3CCCCC3)CC2)c1 [Compound 618, 3-[1,4′]Bipiperidinyl-1′-ylmethyl-N-[3-(3-fluoro-benzylidene-hydrazinocarbonyl)-4,5,6,7-tetrahydro-benzo[b]thiophen-2-yl]-benzamide], O=C(Nc1sc2c(c1C(=O)N/N=C/c1ccc(Cl)c(C(F)(F)F)c1)CCCC2)c1cccc(CN2CCC(N3CCCCC3)CC2)c1 [Compound 619, 3-[1,4′]Bipiperidinyl-1′-ylmethyl-N-[3-(4-chloro-3-trifluoromethyl-benzylidene-hydrazinocarbonyl)-4,5,6,7-tetrahydro-benzo[b]thiophen-2-yl]-benzamide] is lower in IC50: 4.25 µM for the first, < 3 µM for the second.

Cc1ccc(/C=N/NC(=O)c2c(NC(=O)c3cccc(CN4CCN(CCO)CC4)c3)sc3c2CCCC3)cc1C [Compound 621, N-[3-(3,4-Dimethyl-benzylidene-hydrazinocarbonyl)-4,5,6,7-tetrahydro-benzo[b]thiophen-2-yl]-3-[4-(2-hydroxy-ethyl)-piperazin-1-ylmethyl]-benzamide] and Cc1ccc(/C=N/NC(=O)c2c(NC(=O)c3cccc(CN4CCN(CCO)CC4)c3)sc3c2CCCC3)cc1 [Compound 622, 3-[4-(2-Hydroxy-ethyl)-piperazin-1-ylmethyl]-N-[3-(4-methyl-benzylidene-hydrazinocarbonyl)-4,5,6,7-tetrahydro-benzo-[b]thiophen-2-yl]-benzamide] cannot be ordered by IC50: < 3 µM for the first, < 3 µM for the second.

O=C(Nc1sc2c(c1C(=O)N/N=C/c1ccc(F)cc1)CCCC2)c1cccc(CN2CCN(CCO)CC2)c1 [Compound 623, N-[3-(4-Fluoro-benzylidene-hydrazinocarbonyl)-4,5,6,7-tetrahydro-benzo[b]thiophen-2-yl]-3-[4-(2-hydroxy-ethyl)-piperazin-1-ylmethyl]-benzamide] and COc1ccc(/C=N/NC(=O)c2c(NC(=O)c3cccc(CN4CCN(CCO)CC4)c3)sc3c2CCCC3)cc1 [Compound 626, 3-[4-(2-Hydroxy-ethyl)-piperazin-1-ylmethyl]-N-[3-(4-methoxy-benzylidene-hydrazinocarbonyl)-4,5,6,7-tetrahydro-benzo-[b]thiophen-2-yl]-benzamide] cannot be ordered by IC50: < 3 µM for the first, < 3 µM for the second.

O=C(Nc1sc2c(c1C(=O)N/N=C/c1cccc(F)c1)CCCC2)c1cccc(CN2CCN(CCO)CC2)c1 [Compound 624, N-[3-(3-Fluoro-benzylidene-hydrazinocarbonyl)-4,5,6,7-tetrahydro-benzo[b]thiophen-2-yl]-3-[4-(2-hydroxy-ethyl)-piperazin-1-ylmethyl]-benzamide] and O=C(Nc1sc2c(c1C(=O)N/N=C/c1ccc(Cl)c(C(F)(F)F)c1)CCCC2)c1cccc(CN2CCN(CCO)CC2)c1 [Compound 625, N-[3-(4-Chloro-3-trifluoromethyl-benzylidene-hydrazinocarbonyl)-4,5,6,7-tetrahydro-benzo[b]thiophen-2-yl]-3-[4-(2-hydroxy-ethyl)-piperazin-1-ylmethyl]-benzamide] cannot be ordered by IC50: < 3 µM for the first, < 3 µM for the second.

First: O=C(Nc1sc2c(c1C(=O)N/N=C/c1ccc(Cl)c(C(F)(F)F)c1)CCCC2)c1cccc(CN2CCC(CO)CC2)c1 [Compound 643, N-[3-(4-Chloro-3-trifluoromethyl-benzylidene-hydrazinocarbonyl)-4,5,6,7-tetrahydro-benzo[b]thiophen-2-yl]-3-(4-hydroxymethyl-piperidin-1-ylmethyl)-benzamide]
Second: COc1ccc(/C=N/NC(=O)c2c(NC(=O)c3cccc(CN4CCC(CO)CC4)c3)sc3c2CCCC3)cc1 [Compound 644, 3-(4-Hydroxymethyl-piperidin-1-ylmethyl)-N-[3-(4-methoxy-benzylidene-hydrazinocarbonyl)-4,5,6,7-tetrahydro-benzo-[b]thiophen-2-yl]-benzamide]
The IC50 of the first is 1.6-fold lower: 3.68 µM for the first, 5.91 µM for the second. The first is the more potent here.

Cc1ccc(CNNC(=O)c2c(C)csc2NC(=O)c2cccc(CSCCCO)c2)cc1C [Compound 645, N-{3-[N′-(3,4-Dimethyl-benzyl)-hydrazinocarbonyl]-4-methyl-thiophen-2-yl}-3-(3-hydroxy-propylsulfanylmethyl)-benzamide] and Cc1ccc(/C=N/n2c(-c3cccc(CSc4nc[nH]n4)c3)nc3sc4c(c3c2=O)CCCC4)cc1C [Compound 646, 3-[(3,4-Dimethyl-benzylidene-)-amino]-2-[3-(1H-[1,2,4]triazol-3-ylsulfanylmethyl)-phenyl]-5,6,7,8-tetrahydro-3H-benzo[4,5]thieno[2,3-d]pyrimidin-4-one] cannot be ordered by IC50: < 3 µM for the first, 1.77 µM for the second.
